Key:
[1] = target: T1, Calcitonin gene-related peptide type 1 receptor (Homo sapiens, UniProt O60894+Q16602); assay: Displacement of [125I]-CGRP from CGRP receptor in human SK-N-MC cells; format: cell-based
[2] = system: marmosets; assay: Antimigraine activity in marmosets assessed as inhibition of alphaCGRP-induced increase in facial blood flow at 10 mg/kg, po by laser Doppler flowmetry; format: functional; conditions: Callitrichinae sp., in Callithrix jacchus
[3] = Half life in human liver microsomes at 0.5 uM; format: ADME, Microsome
[4] = Oral bioavailability in dog at 10 mg/kg; format: ADME, organism-based, Canis lupus familiaris; conditions: in vivo
[5] = Permeability of the compound at pH 5.5 by PAMPA; format: ADME; conditions: read-out: permeability
[6] = Oral bioavailability in rat at 10 mg/kg; format: ADME, organism-based; conditions: in vivo
[7] = system: marmosets; assay: Antimigraine activity in marmosets assessed as inhibition of human alphaCGRP-induced increase in facial blood flow at 7 mg/kg, sc measured after 60 mins by laser Doppler flowmetry; format: functional; conditions: Callitrichinae sp., 1 h, route subcutaneous
[8] = target: T1, Calcitonin gene-related peptide type 1 receptor; assay: Antagonist activity at CGRP receptor in human SK-N-MC cells assessed as inhibition of CGRP-stimulated cAMP production; format: functional, cell-based
[9] = Oral bioavailability in cynomolgus monkey at 10 mg/kg; format: ADME, organism-based, Macaca fascicularis; conditions: in vivo
[10] = Plasma concentration on marmosets at 7 mg/kg, sc measured after 105 mins; format: ADME, organism-based; design: dose 7 mg/kg, route subcutaneous; conditions: callitrichinae sp.
[11] = Metabolic stability of the compound in human liver microsomes assessed as compound remaining at 0.5 uM after 10 mins; format: ADME, Microsome; conditions: read-out: Stability
[12] = system: marmosets; assay: Antimigraine activity in marmosets assessed as inhibition of human alphaCGRP-induced increase in facial blood flow at 7 mg/kg, sc measured after 105 mins by laser Doppler flowmetry; format: functional; conditions: Callitrichinae sp., 1.75 h, route subcutaneous
[13] = Plasma concentration on marmosets at 7 mg/kg, sc measured after 60 mins; format: ADME, organism-based; design: dose 7 mg/kg, route subcutaneous; conditions: callitrichinae sp.
[14] = Permeability of the compound at pH 7.4 by PAMPA; format: ADME; conditions: read-out: permeability

T1 sequence (Q16602 whole entry, one chain of several): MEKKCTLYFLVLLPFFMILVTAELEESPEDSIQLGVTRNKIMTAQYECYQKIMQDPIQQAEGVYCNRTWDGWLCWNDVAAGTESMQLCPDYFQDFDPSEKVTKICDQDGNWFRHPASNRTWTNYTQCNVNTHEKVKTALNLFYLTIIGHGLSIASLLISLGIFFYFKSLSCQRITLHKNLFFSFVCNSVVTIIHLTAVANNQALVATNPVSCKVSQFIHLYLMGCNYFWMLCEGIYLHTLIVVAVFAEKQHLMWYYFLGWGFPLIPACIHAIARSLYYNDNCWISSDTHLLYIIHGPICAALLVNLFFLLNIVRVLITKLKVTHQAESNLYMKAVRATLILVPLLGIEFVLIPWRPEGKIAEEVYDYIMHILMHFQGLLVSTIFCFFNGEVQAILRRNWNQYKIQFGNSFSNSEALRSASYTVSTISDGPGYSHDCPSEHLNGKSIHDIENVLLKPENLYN

| Ki [1] [nM] | half-life at 0.5 µM [3] [min] | bioavailability [4] [%] | Papp [5] [×10⁻⁶ cm/s] | bioavailability [6] [%] | IC50 [8] [nM] | bioavailability [9] [%] | concentration at 1.75 h [10] [nM] | remaining at 10 min, 0.5 µM [11] [%] | concentration at 1 h [13] [nM] | Papp [14] [×10⁻⁶ cm/s] | SMILES | inhibition in vivo at 10 mg/kg [2] [%] | inhibition in vivo at 7 mg/kg [7] [%] | inhibition in vivo at 7 mg/kg [12] [%] |
| --- | --- | --- | --- | --- | --- | --- | --- | --- | --- | --- | --- | --- | --- | --- |
| 940 |  |  |  |  |  |  |  |  |  |  | O=C(O[C@H]1CC[C@H](c2cccc(F)c2F)Cc2cccnc21)N1CCC(n2c(=O)[nH]c3ncccc32)CC1 |  |  |  |
| 0.071 |  |  |  |  |  |  |  |  |  |  | Cc1cc(CC(OC(=O)N2CCC(n3c(=O)[nH]c4ncccc43)CC2)c2cc(C(=O)N(C)C)cc(Cl)n2)cc2cn[nH]c12 (racemic) | 31 |  |  |
| 0.07 | 24 | 34 | 150 | 29 | 0.22 | 38 | > 1500 | 74 | > 1000 | 88 | O=C(O[C@@H]1CC[C@@H](c2cccc(F)c2F)Cc2cccnc21)N1CCC(n2c(=O)[nH]c3ncccc32)CC1 |  | 52 | 52 |
